# Test results as given in US9073916B2, “Prodrug forms of kinase inhibitors and their use in therapy” (AUCKLAND UNISERVICES LIMITED, priority 2009, dated 2015).
# Read-outs that look alike come from different tables or passages of the source.
# Assays:
# [1] = Steady state radiolytic reduction by the CO2.− radical with HPLC-MS; assay type: physicochemical; conditions: for Detection of MNA (methyl nitroaromatic) / release of effector following 1-electron reduction: HPLC-MS; for % Loss of prodrug / % Release of effector: HPLC-MS at 0.95 reducing equivalents; for release of effector following 1-electron reduction: steady state radiolysis; for Effector release/Prodrug loss: 0.95 reducing equivalents
# A431 cells = test: Cellular growth inhibition (sulforhodamine B)
# erbB1 [2] = target: T1, erbB1 (Homo sapiens, UniProt P00533); test: Cellular erbB1 inhibition under oxic and hypoxic conditions in A431 cells; assay type: cell-based; conditions: 1 μM, 4 hour exposure oxic or hypoxic, washed, EGF stimulated
# erbB2 = erbB2 (Homo sapiens, UniProt P04626); test: Isolated enzyme inhibition (Invitrogen Z′-LYTE kinase assay); assay type: biochemical; conditions: 10 μM ATP, duplicate
# Experimental: (§1) The compounds of Table 1 were tested for their ability to inhibit erbB1, erbB1^T790M, erbB2 and erbB4 in an isolated enzyme assay. This assay utilises synthetic FRET-capable peptide substrates. Phosphorylation of these substrates protects them from cleavage by a development reagent, leaving their FRET-capabilities intact. […] As a further consideration, for compounds capable of irreversible inhibition of an enzyme, the IC50 reflects both reversible and irreversible binding to the enzyme.
# [3] = Pulse radiolysis (E(1) and fragmentation rate); assay type: physicochemical; conditions: for E (1)/V (one-electron reduction potential): determined against methylviologen
# Experimental: (§2) Pulse radiolysis was used to monitor the 1-electron reduction and stability of the compounds in real time. A linear accelerator delivering short pulses of high energy electrons (2-3 Gy in 200 ns of 4 MeV) equipped with a fast spectophotometric detection system was used. (Anderson et al, J. Phys. Chem. A, 101, 9704-9709, 1997). […] The rate of fragmentation was determined by analysing kinetic transients at wavelengths corresponding to the formation of the benzyl-type radical of the trigger moiety. (Bays et al, J. Am. Chem. Soc., 105, 320-324, 1983; Anderson et al, J. Phys. Chem. A, 101, 9704-9709, 1997).
# The pulse radiolysis method, for example, measures the equilibrium constant between the radical anions of the prodrugs, formed upon their 1-electron reduction, and reference standards such as viologen and quinone compounds, from which data the E(1) values of the compounds can be calculated. (Meisel and Czapski. J. Phys. Chem., 1975, 79, 1503-1509.) The E(1) values of prodrugs 17-22, 140-145 were measured by the pulse radiolysis method and determined to range between −0.493V and −0.388V (Table 4).
# The rate constants for fragmentation, kfrag, of the 1-electron reduced prodrugs can be measured using pulse radiolysis to observe the time-resolved formation of the absorption spectrum of the benzyl-type radical produced upon fragmentation of the radical anion. (Anderson et al, J. Phys. Chem. A, 1997, 101, 9704-9709.) The kfrag values of prodrugs 19, 20, 140, 141 and 143-145 were measured by pulse radiolysis and are presented in Table 4.
# as §2, with “one-electron” for “1-electron”, “prodrug 42” for “the compounds”, “used.” for “used. (Anderson et al, J. Phys. Chem. A, 101, 9704-9709, 1997).”, “1997.)” for “1997).”
# SW620 cells = test: Cellular growth inhibition (sulforhodamine B); assay type: cell-based, Human; conditions: Table 3
# SKBR3 cells = test: Cellular growth inhibition (sulforhodamine B); assay type: cell-based, Human; conditions: Table 3
# erbB1 [4] = target: T1, erbB1; test: Isolated enzyme inhibition (Invitrogen Z′-LYTE kinase assay); assay type: biochemical; conditions: 10 μM ATP, duplicate
# erbB1 [5] = target: T1, erbB1; test: Inhibition of erbB1 autophosphorylation in EGF-stimulated intact A431 cells (Western blot); conditions: for Deact. (fold reduction in cellular erbB1 inhibition relative to the parent kinase inhibitor): A431 cells
# erbB4 = erbB4 (Homo sapiens, UniProt Q15303); test: Isolated enzyme inhibition (Invitrogen Z′-LYTE kinase assay); assay type: biochemical; conditions: 10 μM ATP, duplicate
# Experimental: as §1
# erbB1^T790M = erbB1^T790M (Homo sapiens, UniProt P00533, T790M); test: as above; assay type: biochemical; conditions: 10 μM ATP, duplicate
# A431 xenografts = test: In vivo efficacy in A431 xenografts; conditions: A431 xenografts, q4dx3 at MTD, IP in lactate buffer
# Experimental: Specific pathogen-free homozygous female CD-1 nude mice (Charles River Laboratories, Wilmington, Mass.) were inoculated subcutaneously with a single cell suspension of A431 cells (5×10^6 cells/100 […]; right flank). When A431 tumour xenografts were established (typically 6-10 days) mice were randomized to treatment groups. All compounds were prepared in lactate buffer (pH4). Mice were dosed by intraperitoneal injection (0.01-0.03 ml/g) using the stated schedules and dose levels. Tumour size and body weights were measured at regular intervals. Tumour volume was calculated as π (length×width^2)/6. […] Differences in RTV^4 were tested for statistical difference by Mann Whitney U test using SigmaStat v3.5.
# [6] = Homo sapiens, A-431, 24 h, read-out: Cellular Growth Inhibition IC50 A431 Oxic
# [7] = Homo sapiens, A-431, read-out: Cellular Growth Inhibition IC50 A431 Anoxic
# [8] = Homo sapiens, SW-620, 24 hour exposure entirely oxic, read-out: Cellular Growth Inhibition IC50 SW620 Oxic
# [9] = Homo sapiens, SW-620, first 4 hours anoxic, read-out: Cellular Growth Inhibition IC50 SW620 Anoxic
# [10] = Homo sapiens, SK-BR-3, 24 hour exposure entirely oxic, read-out: Cellular Growth Inhibition IC50 SKBR3 Oxic
# [11] = Homo sapiens, SK-BR-3, first 4 hours anoxic, read-out: Cellular Growth Inhibition IC50 SKBR3 Anoxic
# T1 sequence (P00533 25-1210): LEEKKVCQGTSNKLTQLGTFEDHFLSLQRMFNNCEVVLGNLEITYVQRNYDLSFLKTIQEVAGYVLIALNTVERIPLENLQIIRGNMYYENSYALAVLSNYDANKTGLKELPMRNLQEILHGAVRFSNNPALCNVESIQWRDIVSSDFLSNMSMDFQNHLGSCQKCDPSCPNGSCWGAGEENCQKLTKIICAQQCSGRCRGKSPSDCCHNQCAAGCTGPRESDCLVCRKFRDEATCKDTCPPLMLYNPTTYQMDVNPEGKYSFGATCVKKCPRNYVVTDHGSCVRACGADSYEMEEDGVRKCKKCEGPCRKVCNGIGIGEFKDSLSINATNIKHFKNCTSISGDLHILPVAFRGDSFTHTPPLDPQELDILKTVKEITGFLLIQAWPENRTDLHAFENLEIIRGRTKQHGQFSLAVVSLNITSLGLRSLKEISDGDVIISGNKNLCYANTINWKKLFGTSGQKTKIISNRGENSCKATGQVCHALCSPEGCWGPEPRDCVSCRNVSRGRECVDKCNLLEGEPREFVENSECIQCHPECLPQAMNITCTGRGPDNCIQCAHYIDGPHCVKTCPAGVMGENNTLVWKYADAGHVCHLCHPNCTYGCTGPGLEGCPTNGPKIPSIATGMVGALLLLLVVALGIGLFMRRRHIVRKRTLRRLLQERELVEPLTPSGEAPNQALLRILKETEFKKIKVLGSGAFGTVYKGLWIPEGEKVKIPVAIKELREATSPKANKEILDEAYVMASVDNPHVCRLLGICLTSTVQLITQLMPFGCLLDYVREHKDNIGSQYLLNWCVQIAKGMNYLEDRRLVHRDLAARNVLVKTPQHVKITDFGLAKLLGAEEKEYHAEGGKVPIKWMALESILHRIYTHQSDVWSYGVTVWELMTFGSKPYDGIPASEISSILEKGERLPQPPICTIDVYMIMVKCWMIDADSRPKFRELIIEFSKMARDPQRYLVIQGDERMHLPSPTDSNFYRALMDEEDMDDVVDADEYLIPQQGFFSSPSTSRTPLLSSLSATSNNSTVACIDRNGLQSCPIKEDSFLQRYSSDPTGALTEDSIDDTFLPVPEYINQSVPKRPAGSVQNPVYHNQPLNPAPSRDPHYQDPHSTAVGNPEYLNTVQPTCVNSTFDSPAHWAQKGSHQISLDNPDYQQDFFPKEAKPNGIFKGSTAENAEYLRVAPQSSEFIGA
# erbB2, sequence (P04626 23-1255): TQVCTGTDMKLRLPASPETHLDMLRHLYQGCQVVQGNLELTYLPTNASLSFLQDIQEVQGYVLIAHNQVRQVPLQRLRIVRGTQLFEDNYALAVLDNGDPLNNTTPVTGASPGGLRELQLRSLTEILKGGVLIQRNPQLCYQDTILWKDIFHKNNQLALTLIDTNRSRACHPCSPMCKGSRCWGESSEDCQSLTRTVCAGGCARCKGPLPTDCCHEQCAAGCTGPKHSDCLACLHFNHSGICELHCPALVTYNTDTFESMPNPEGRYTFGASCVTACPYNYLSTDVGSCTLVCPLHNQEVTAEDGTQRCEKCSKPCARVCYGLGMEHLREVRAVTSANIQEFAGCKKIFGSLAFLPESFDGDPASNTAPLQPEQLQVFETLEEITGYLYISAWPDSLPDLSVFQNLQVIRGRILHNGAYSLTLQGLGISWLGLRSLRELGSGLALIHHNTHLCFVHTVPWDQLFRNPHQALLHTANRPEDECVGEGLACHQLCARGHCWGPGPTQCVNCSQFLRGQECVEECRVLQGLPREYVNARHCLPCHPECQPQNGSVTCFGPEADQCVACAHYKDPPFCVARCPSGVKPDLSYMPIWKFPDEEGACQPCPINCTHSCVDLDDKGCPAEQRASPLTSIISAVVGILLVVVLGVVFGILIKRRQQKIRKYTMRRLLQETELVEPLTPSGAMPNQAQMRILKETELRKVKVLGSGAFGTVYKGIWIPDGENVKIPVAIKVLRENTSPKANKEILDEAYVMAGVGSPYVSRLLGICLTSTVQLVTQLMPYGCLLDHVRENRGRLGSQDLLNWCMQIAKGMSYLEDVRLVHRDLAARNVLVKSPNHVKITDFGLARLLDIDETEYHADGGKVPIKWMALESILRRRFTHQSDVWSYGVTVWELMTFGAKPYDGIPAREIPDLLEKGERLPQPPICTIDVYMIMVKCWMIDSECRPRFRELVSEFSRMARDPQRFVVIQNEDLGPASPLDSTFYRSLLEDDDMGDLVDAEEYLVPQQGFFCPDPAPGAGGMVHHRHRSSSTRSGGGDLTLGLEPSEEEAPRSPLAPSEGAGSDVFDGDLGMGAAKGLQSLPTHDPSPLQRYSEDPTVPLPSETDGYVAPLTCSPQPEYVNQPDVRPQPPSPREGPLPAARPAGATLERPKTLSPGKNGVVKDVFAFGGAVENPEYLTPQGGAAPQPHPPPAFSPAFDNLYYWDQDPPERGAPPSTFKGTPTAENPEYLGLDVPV
# erbB4, sequence (Q15303 26-1308): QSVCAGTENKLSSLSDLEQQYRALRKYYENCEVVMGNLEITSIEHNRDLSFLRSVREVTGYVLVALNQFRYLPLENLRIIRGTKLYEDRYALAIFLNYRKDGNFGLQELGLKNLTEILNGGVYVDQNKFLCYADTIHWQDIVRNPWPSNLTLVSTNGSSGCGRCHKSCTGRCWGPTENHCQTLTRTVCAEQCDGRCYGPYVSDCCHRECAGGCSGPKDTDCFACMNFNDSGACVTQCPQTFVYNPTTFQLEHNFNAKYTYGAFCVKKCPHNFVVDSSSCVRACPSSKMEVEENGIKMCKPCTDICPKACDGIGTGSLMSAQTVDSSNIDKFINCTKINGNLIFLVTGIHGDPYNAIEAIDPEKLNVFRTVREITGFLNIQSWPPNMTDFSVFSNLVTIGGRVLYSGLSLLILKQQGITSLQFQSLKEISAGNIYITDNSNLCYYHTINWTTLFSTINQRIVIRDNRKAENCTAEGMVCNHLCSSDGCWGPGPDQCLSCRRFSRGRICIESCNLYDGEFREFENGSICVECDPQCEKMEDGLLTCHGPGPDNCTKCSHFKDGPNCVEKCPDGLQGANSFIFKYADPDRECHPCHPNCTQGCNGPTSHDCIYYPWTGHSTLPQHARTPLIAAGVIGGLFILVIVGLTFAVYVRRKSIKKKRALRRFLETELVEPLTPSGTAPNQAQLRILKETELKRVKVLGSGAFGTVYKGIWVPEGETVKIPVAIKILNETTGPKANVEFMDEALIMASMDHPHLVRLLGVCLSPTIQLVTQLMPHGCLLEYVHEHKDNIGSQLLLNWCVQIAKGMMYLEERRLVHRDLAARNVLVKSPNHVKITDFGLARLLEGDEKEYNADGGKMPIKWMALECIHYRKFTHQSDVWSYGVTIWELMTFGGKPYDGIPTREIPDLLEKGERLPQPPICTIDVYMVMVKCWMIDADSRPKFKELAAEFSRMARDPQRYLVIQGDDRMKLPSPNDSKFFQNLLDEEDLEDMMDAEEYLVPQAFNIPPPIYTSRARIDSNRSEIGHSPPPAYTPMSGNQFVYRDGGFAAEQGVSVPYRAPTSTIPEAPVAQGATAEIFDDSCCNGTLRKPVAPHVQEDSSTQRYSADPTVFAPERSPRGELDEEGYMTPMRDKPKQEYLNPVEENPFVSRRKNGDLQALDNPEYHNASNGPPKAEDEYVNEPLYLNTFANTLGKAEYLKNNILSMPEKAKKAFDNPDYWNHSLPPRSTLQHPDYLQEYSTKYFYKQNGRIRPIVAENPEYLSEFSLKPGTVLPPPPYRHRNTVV
# erbB1^T790M, sequence (P00533 25-1210 T790M): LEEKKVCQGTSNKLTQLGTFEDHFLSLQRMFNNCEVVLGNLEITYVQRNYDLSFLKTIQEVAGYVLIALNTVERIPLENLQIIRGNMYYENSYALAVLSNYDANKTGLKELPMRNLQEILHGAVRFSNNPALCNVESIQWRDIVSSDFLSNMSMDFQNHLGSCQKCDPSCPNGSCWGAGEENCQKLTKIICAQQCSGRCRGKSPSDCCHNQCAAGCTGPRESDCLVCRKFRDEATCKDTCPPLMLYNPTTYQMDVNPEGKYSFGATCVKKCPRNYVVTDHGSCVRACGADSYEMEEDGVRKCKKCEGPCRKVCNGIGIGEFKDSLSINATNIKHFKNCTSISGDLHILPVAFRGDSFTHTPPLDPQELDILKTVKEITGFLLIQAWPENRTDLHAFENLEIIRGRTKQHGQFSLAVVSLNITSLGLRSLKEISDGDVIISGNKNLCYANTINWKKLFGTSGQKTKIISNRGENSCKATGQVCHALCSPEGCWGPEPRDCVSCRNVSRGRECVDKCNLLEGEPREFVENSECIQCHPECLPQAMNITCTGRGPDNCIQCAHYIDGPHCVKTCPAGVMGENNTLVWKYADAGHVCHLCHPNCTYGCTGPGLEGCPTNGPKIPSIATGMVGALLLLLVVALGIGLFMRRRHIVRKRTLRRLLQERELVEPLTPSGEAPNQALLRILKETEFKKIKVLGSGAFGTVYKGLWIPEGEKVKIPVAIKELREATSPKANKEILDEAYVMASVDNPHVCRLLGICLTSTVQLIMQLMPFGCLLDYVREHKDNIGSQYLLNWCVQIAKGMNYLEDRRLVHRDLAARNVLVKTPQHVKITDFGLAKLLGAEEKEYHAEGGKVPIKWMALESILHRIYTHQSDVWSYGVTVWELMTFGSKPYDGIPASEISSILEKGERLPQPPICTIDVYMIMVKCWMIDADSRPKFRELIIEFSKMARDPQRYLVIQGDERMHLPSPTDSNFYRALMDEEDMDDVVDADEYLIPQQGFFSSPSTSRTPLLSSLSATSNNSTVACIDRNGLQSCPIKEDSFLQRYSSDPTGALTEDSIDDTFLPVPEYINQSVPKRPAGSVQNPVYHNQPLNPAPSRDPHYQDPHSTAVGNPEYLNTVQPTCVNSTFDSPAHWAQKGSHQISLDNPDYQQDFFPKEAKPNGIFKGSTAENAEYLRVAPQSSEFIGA
SMILES,Detection of MNA (methyl nitroaromatic) [1],% Loss of prodrug [1],IC50 (A431 cells; [6]),IC50 (A431 cells; [7]),hypoxia-selective inhibition of p-erbB1 (erbB1 [2]),IC50 (erbB2),E (1)/V (one-electron reduction potential) [3],IC50 (SW620 cells; [8]),IC50 (SW620 cells; [9]),IC50 (SKBR3 cells; [10]),IC50 (SKBR3 cells; [11]),IC50 (erbB1 [4]),release of effector following 1-electron reduction [1],A431 Deact. (fold reduction in oxic growth inhibition relative to parent kinase inhibitor) (A431 cells; Table 3),A431 HCR (Hypoxic Cytotoxicity Ratio) (A431 cells; Table 3),SW620 Deact. (SW620 cells),SW620 HCR (SW620 cells),SKBR3 Deact. (SKBR3 cells),SKBR3 HCR (SKBR3 cells),Effector release/Prodrug loss [1],also measured
"Cn1c(C[N+](C)(C)C/C=C/C(=O)Nc2ccc3ncnc(Nc4cccc(Br)c4)c3c2)ccc1[N+](=O)[O-].[Br-] [Compound 19, (2E)-4-{[4-(3-bromoanilino)-6-quinazolinyl]amino}-N,N-dimethyl-N-[(1-methyl-5-nitro-1H-pyrrol-2-yl)methyl]-4-oxo-2-buten-1-ammonium bromide]",No,63%,–,–,–,113 nM,−0.493 V,–,–,–,–,0.4 nM,released effector (compound 11) detected,–,–,46 fold,5.6 fold,78 fold,–,0.73,"IC50 (erbB1 [5]; read-out: Cellular Enzyme Inhibition IC50 erbB1, Table 2, intact A431 cells, EGF-stimulated, average of two determinations): 962 nM; % Release of effector [1]: 46%; IC50 (A431 cells; read-out: Cellular Growth Inhibition IC50 A431 Anoxic, Table 3, first 4 hours of 24 hour exposure anoxic): 201 nM; IC50 (A431 cells; read-out: Cellular Growth Inhibition IC50 A431 Oxic, Table 3, 24 hour exposure entirely oxic): 2640 nM; IC50 (erbB4): 61 nM; kfrag. (fragmentation rate constant upon 1-electron reduction) ([3]; benzyl-type radical formation): 90 ± 10 s⁻¹; IC50 (SW620 cells; 24 hour exposure entirely oxic, read-out: Cellular Growth Inhibition IC50 SW620 Oxic): 156000 nM; IC50 (SW620 cells; first 4 hours anoxic, read-out: Cellular Growth Inhibition IC50 SW620 Anoxic): 28000 nM; IC50 (SKBR3 cells; 24 hour exposure entirely oxic, read-out: Cellular Growth Inhibition IC50 SKBR3 Oxic): 6330 nM; IC50 (SKBR3 cells; first 4 hours anoxic, read-out: Cellular Growth Inhibition IC50 SKBR3 Anoxic): 483 nM; IC50 (erbB1^T790M): 451 nM; tumour growth inhibition (TGI) (A431 xenografts): 120%"
"Cn1cnc([N+](=O)[O-])c1C[N+](C)(C)CCCC(=O)Nc1ccc2ncnc(Nc3cccc(Br)c3)c2c1 [Compound 27, 4-{([4-(3-bromoanilino)-6-quinazolinyl]amino}-N,N-dimethyl-N-[(1-methyl-4-nitro-1H-imidazol-5-yl)methyl]-4-oxo-1-butanaminium bromide]",–,–,255000 nM,76100 nM,–,191 nM,–,684000 nM,585000 nM,507000 nM,74300 nM,0.64 nM,–,203 fold,3.4 fold,37 fold,1.2 fold,159 fold,7.6 fold,–,IC50 (erbB1 [5]): 3600 nM; Deact. (fold reduction in cellular erbB1 inhibition relative to the parent kinase inhibitor) (erbB1 [5]; Table 2): 201 fold; IC50 (erbB4): 174 nM; IC50 (erbB1^T790M): 798 nM

# The remaining molecules from weak to strong by IC50 (A431 cells; [6]), led by results:
Detection of MNA (methyl nitroaromatic) [1],% Loss of prodrug [1],IC50 (A431 cells; [6]),IC50 (A431 cells; [7]),hypoxia-selective inhibition of p-erbB1 (erbB1 [2]),IC50 (erbB2),E (1)/V (one-electron reduction potential) [3],IC50 (SW620 cells; [8]),IC50 (SW620 cells; [9]),IC50 (SKBR3 cells; [10]),IC50 (SKBR3 cells; [11]),IC50 (erbB1 [4]),SMILES,release of effector following 1-electron reduction [1],A431 Deact. (fold reduction in oxic growth inhibition relative to parent kinase inhibitor) (A431 cells; Table 3),A431 HCR (Hypoxic Cytotoxicity Ratio) (A431 cells; Table 3),SW620 Deact. (SW620 cells),SW620 HCR (SW620 cells),SKBR3 Deact. (SKBR3 cells),SKBR3 HCR (SKBR3 cells),Effector release/Prodrug loss [1],also measured
No,35%,5860 nM,564 nM,no apparent hypoxia-selective inhibition,135 nM,−0.449 V,281000 nM,123000 nM,11000 nM,1640 nM,0.46 nM,"Cn1ncc([N+](=O)[O-])c1C[N+](C)(C)C/C=C/C(=O)Nc1ccc2ncnc(Nc3cccc(Br)c3)c2c1 [Compound 22, (2E)-4-{[4-(3-bromoanilino)-6-quinazolinyl]amino}-N,N-dimethyl-N-[(1-methyl-4-nitro-1H-pyrazol-5-yl)methyl]-4-oxo-2-buten-1-ammonium bromide]",did not release their respective effector compounds,147 fold,10.4 fold,82 fold,2.3 fold,136 fold,6.7 fold,0.49,IC50 (erbB1 [5]): 1390 nM; Deact. (fold reduction in cellular erbB1 inhibition relative to the parent kinase inhibitor) (erbB1 [5]; Table 2): 151 fold; % Release of effector [1]: 17%
No,33%,2340 nM,401 nM,no apparent hypoxia-selective inhibition,123 nM,−0.388 V,92200 nM,79800 nM,3750 nM,1290 nM,0.2 nM,"C[N+](C)(C/C=C/C(=O)Nc1ccc2ncnc(Nc3cccc(Br)c3)c2c1)Cc1ccccc1[N+](=O)[O-] [Compound 18, (2E)-4-{[4-(3-bromoanilino)-6-quinazolinyl]amino}-N,N-dimethyl-N-(2-nitrobenzyl)-4-oxo-2-buten-1-ammonium bromide]",did not release their respective effector compounds,59 fold,5.8 fold,27 fold,1.2 fold,44 fold,2.8 fold,–,–
No,33%,462 nM,444 nM,no apparent hypoxia-selective inhibition,110 nM,−0.408 V,112000 nM,112000 nM,1520 nM,1840 nM,0.56 nM,"C[N+](C)(C/C=C/C(=O)Nc1ccc2ncnc(Nc3cccc(Br)c3)c2c1)Cc1ccc([N+](=O)[O-])cc1 [Compound 17, (2E)-4-{[4-(3-bromoanilino)-6-quinazolinyl]amino}-N,N-dimethyl-N-(4-nitrobenzyl)-4-oxo-2-buten-1-ammonium bromide]",did not release their respective effector compounds,12 fold,1.0 fold,33 fold,1.0 fold,19 fold,0.8 fold,–,–
